From patent US20070219245A1, “METHOD OF USE FOR SUBSTITUTED DIPIPERIDINE CCR2 ANTAGONISTS” (priority 2006, published 2007)

Assays:
lean mice = assay: Diet induced obesity model, treatment arm TA2 (lean mice, regular chow diet); type: in vivo; conditions: 100 mg/kg ip bid Day 1-28, mean ± SEM
Experimental: In a diet induced obesity (DIO) model in mice, two treatment arms of mice were tested. In the first treatment arm (TA1), DIO mice in four treatment groups (treated: 25 mg/kg, 50 mg/kg and 100 mg/kg and non-treated vehicle control) were fed a high fat diet. In the second treatment arm (TA2), lean mice in two treatment groups (treated: 100 mg/kg and non-treated vehicle control) were fed a regular chow diet. After 7 days acclimation to the diet, the treated groups in each arm were dosed (0.1 mL, ip, bid) with a test compound from Day 1 to Day 28 of the study. After 7 days acclimation to the diet, the non-treated groups in each arm were dosed (0.1 mL, ip, bid) with vehicle from Day 1 to Day 28 of the study. Body weight was monitored twice per week and on Day 28. After sacrifice, blood glucose, body weight, body mass, serum MCP-1 and insulin levels were also recorded. MCP-1 was measured by ELISA. The statistical analysis for p value was performed using the program Prism (Graphpad, Monrovia, Calif.) with the Student t-test (unpaired). All data are presented as the mean ± standard error of the mean (SEM).

NON (NONcNZO10/LtJ) mice = assay: Insulin sensitivity model: insulin tolerance test; type: in vivo; conditions: for Blood Glucose: mean ± SEM
Experimental: In an insulin sensitivity model in mice, four month old male NON (NONcNZO10/LtJ) mice in four treatment groups (treated: 25 mg/kg, 50 mg/kg and 100 mg/kg and non-treated vehicle control) were fed LabDiet® 5K20 for 28 days. The treated groups were dosed (0.1 mL, ip, bid) with a test compound from Day 1 to Day 28. The non-treated group was dosed (0.1 mL, ip, q.d.) with vehicle from Day 1 to Day 28. Body weight and blood glucose were monitored once per week and an insulin tolerance test was performed by i.p. injection of […] insulin, then fed blood glucose levels were measured at 0, 15, 30, 60, 90, and 120 min after insulin administration. The insulin tolerance test blood glucose levels at the time points the sample were taken after insulin administration are shown in Table 5. Blood glucose levels were measured using a Glucometer. MCP-1 and insulin were measured by ELISA. Plasma glucose and FFA were measured using Weko kits. The statistical analysis for p value was performed using the program Prism (Graphpad, Monrovia, Calif.) with the Student t-test (unpaired). All data are presented as the mean ± standard error of the mean (SEM).

## O=C(O)[C@H](C1CCN(C(=O)/C=C/c2cc(F)c(F)c(F)c2)CC1)N1CCC(c2c[nH]c3ccccc23)CC1 [(S)-{[4-(1H-indol-3-yl)-piperidin-1-yl]}-{1-[(2E)-3-(3,4,5-trifluoro-phenyl)-acryloyl]-piperidin-4-yl}-acetic acid]
Lean mice
  Change in Fat Mass: 0.6 ± 0.3 g
  Change in Lean Mass: 3.4 ± 0.8 g
  Change in Water: 3.1 ± 0.7 g
  Food Intake: 22.8 ± 1.7 g/7 days
  Plasma MCP-1: 646.8 ± 112.5 pg/mL
NON (NONcNZO10/LtJ) mice; Day 7, 25 mg/kg ip bid, 0 min after insulin
  Blood Glucose: 333 ± 44 mg/dL
NON (NONcNZO10/LtJ) mice; Day 7, 25 mg/kg ip bid, 15 min after insulin
  Blood Glucose: 213 ± 40 mg/dL
NON (NONcNZO10/LtJ) mice; Day 7, 25 mg/kg ip bid, 30 min after insulin
  Blood Glucose: 157 ± 27 mg/dL
NON (NONcNZO10/LtJ) mice; Day 7, 25 mg/kg ip bid, 60 min after insulin
  Blood Glucose: 146 ± 21 mg/dL
NON (NONcNZO10/LtJ) mice; Day 7, 25 mg/kg ip bid, 90 min after insulin
  Blood Glucose: 146 ± 18 mg/dL
NON (NONcNZO10/LtJ) mice; Day 7, 25 mg/kg ip bid, 120 min after insulin
  Blood Glucose: 164 ± 23 mg/dL
NON (NONcNZO10/LtJ) mice; Day 7, 50 mg/kg ip bid, 0 min after insulin
  Blood Glucose: 325 ± 54 mg/dL
NON (NONcNZO10/LtJ) mice; Day 7, 50 mg/kg ip bid, 15 min after insulin
  Blood Glucose: 213 ± 51 mg/dL
NON (NONcNZO10/LtJ) mice; Day 7, 50 mg/kg ip bid, 30 min after insulin
  Blood Glucose: 136 ± 20 mg/dL
NON (NONcNZO10/LtJ) mice; Day 7, 50 mg/kg ip bid, 60 min after insulin
  Blood Glucose: 115 ± 13 mg/dL
NON (NONcNZO10/LtJ) mice; Day 7, 50 mg/kg ip bid, 90 min after insulin
  Blood Glucose: 115 ± 8 mg/dL
NON (NONcNZO10/LtJ) mice; Day 7, 50 mg/kg ip bid, 120 min after insulin
  Blood Glucose: 142 ± 8 mg/dL
NON (NONcNZO10/LtJ) mice; Day 7, 100 mg/kg ip bid, 0 min after insulin
  Blood Glucose: 230 ± 22 mg/dL
NON (NONcNZO10/LtJ) mice; Day 7, 100 mg/kg ip bid, 15 min after insulin
  Blood Glucose: 141 ± 16 mg/dL
NON (NONcNZO10/LtJ) mice; Day 7, 100 mg/kg ip bid, 30 min after insulin
  Blood Glucose: 105 ± 9 mg/dL
NON (NONcNZO10/LtJ) mice; Day 7, 100 mg/kg ip bid, 60 min after insulin
  Blood Glucose: 82 ± 8 mg/dL
NON (NONcNZO10/LtJ) mice; Day 7, 100 mg/kg ip bid, 90 min after insulin
  Blood Glucose: 83 ± 7 mg/dL
NON (NONcNZO10/LtJ) mice; Day 7, 100 mg/kg ip bid, 120 min after insulin
  Blood Glucose: 98 ± 8 mg/dL
NON (NONcNZO10/LtJ) mice; Day 21, 25 mg/kg ip bid, 0 min after insulin
  Blood Glucose: 465 ± 34 mg/dL
NON (NONcNZO10/LtJ) mice; Day 21, 25 mg/kg ip bid, 15 min after insulin
  Blood Glucose: 367 ± 51 mg/dL
NON (NONcNZO10/LtJ) mice; Day 21, 25 mg/kg ip bid, 30 min after insulin
  Blood Glucose: 247 ± 53 mg/dL
NON (NONcNZO10/LtJ) mice; Day 21, 25 mg/kg ip bid, 60 min after insulin
  Blood Glucose: 209 ± 56 mg/dL
NON (NONcNZO10/LtJ) mice; Day 21, 25 mg/kg ip bid, 90 min after insulin
  Blood Glucose: 198 ± 51 mg/dL
NON (NONcNZO10/LtJ) mice; Day 21, 25 mg/kg ip bid, 120 min after insulin
  Blood Glucose: 237 ± 43 mg/dL
NON (NONcNZO10/LtJ) mice; Day 21, 50 mg/kg ip bid, 0 min after insulin
  Blood Glucose: 434 ± 71 mg/dL
NON (NONcNZO10/LtJ) mice; Day 21, 50 mg/kg ip bid, 15 min after insulin
  Blood Glucose: 303 ± 56 mg/dL
NON (NONcNZO10/LtJ) mice; Day 21, 50 mg/kg ip bid, 30 min after insulin
  Blood Glucose: 186 ± 32 mg/dL
NON (NONcNZO10/LtJ) mice; Day 21, 50 mg/kg ip bid, 60 min after insulin
  Blood Glucose: 162 ± 37 mg/dL
NON (NONcNZO10/LtJ) mice; Day 21, 50 mg/kg ip bid, 90 min after insulin
  Blood Glucose: 168 ± 47 mg/dL
NON (NONcNZO10/LtJ) mice; Day 21, 50 mg/kg ip bid, 120 min after insulin
  Blood Glucose: 214 ± 49 mg/dL
NON (NONcNZO10/LtJ) mice; Day 21, 100 mg/kg ip bid, 0 min after insulin
  Blood Glucose: 332 ± 38 mg/dL
NON (NONcNZO10/LtJ) mice; Day 21, 100 mg/kg ip bid, 15 min after insulin
  Blood Glucose: 247 ± 28 mg/dL
NON (NONcNZO10/LtJ) mice; Day 21, 100 mg/kg ip bid, 30 min after insulin
  Blood Glucose: 152 ± 15 mg/dL
NON (NONcNZO10/LtJ) mice; Day 21, 100 mg/kg ip bid, 60 min after insulin
  Blood Glucose: 144 ± 21 mg/dL
NON (NONcNZO10/LtJ) mice; Day 21, 100 mg/kg ip bid, 90 min after insulin
  Blood Glucose: 158 ± 28 mg/dL
NON (NONcNZO10/LtJ) mice; Day 21, 100 mg/kg ip bid, 120 min after insulin
  Blood Glucose: 228 ± 43 mg/dL
NON (NONcNZO10/LtJ) mice; NON mice
  blood glucose control: improved
  insulin sensitivity: increased
